One experiment relates to PC-3. Description: Cytotoxicity against human PC3 cells after 3 days by MTT assay. The class given is functional, cell-based. The conditions noted are these: PC-3, 72 h. (Tetrazolium assays rely on reduction of a dye to a coloured formazan, in cell work by metabolically active cells.)
Experiment [1] is filed under the species Bos taurus. Nature of the experiment: Inhibition of bovine brain tubulin polymerization at 40 uM absence of microtubule associated proteins.
The species named for experiment [2] is Bos taurus. Description: Inhibition of bovine brain tubulin polymerization at 40 uM in presence of microtubule associated proteins.
The species named for experiment [3] is Bos taurus. Nature of the experiment: Inhibition of bovine brain tubulin polymerization at 27 uM in presence of microtubule associated proteins.
The species entered for experiment [4] is Bos taurus. Description: Inhibition of bovine brain tubulin polymerization at 27 uM in absence of microtubule associated proteins.

A word on the IC50: it is the concentration at which inhibition is half-maximal. The low end stands for greater potency, the high end for weaker potency.

Activity calls are given as the source filed them. The rule behind the calls is not given here. Where only a bound is given, the exact number is not on record here.

With `Cc1nc2c(-c3ccc(Br)cc3)nc3ccccc3c2c(=O)n1-c1ccccc1`, half-maximal inhibition with PC-3 (IC50) was put at 2.2 µM.
Still for that read-out and setting: the same measure for `Cc1ccccc1-n1c(C)nc2c(-c3ccc(Cl)cc3)nc3ccccc3c2c1=O`: above 38 µM.
In the experiment with PC-3, `Cc1nc2c(-c3ccc(Br)cc3)nc3ccccc3c2c(=O)n1-c1cccc(Br)c1` displayed a half-inhibitory concentration (IC50) above 10 µM.
`Cc1nc2c(-c3ccc(Br)cc3)nc3ccccc3c2c(=O)n1-c1cccc(Cl)c1` displayed a concentration for half-maximal inhibition (IC50) in the experiment on PC-3 above 25 µM.
The compound `Cc1nc2c(-c3ccc(Br)cc3)nc3ccccc3c2c(=O)n1-c1ccc(F)cc1` registered an IC50 with PC-3 of 5.5 µM.
On the same count and under the same terms, the same measure for `Cc1nc2c(-c3ccc(Cl)cc3)nc3ccccc3c2c(=O)n1-c1cccc(Cl)c1`: above 26 µM; for `Cc1ccc(-n2c(C)nc3c(-c4ccc(Br)cc4)nc4ccccc4c3c2=O)cc1`: above 21.3 µM; for `Cc1nc2c(-c3ccc(Cl)cc3)nc3ccccc3c2c(=O)n1-c1ccc(Cl)cc1`: above 28 µM.
The same measure, in the same setting: the same measure for `Cc1nc2c(-c3ccc(Br)cc3)nc3ccccc3c2c(=O)n1-c1ccc(Br)cc1`: 3.3 µM; for `COc1ccccc1-n1c(C)nc2c(-c3ccc(Cl)cc3)nc3ccccc3c2c1=O`: 10.5 µM.
Same read-out and setting: the same measure for `COc1cc2c(c(OC)c1OC)-c1ccc(OC)c(=O)cc1[C@@H](NC(C)=O)CC2` [COLCHICINE]: 0.018 µM.
In the experiment with PC-3, `Cc1nc2c(-c3ccc(Cl)cc3)nc3ccccc3c2c(=O)n1-c1ccc(F)cc1` yielded an IC50 of 4 µM.
The same measure, in the same setting: then `Cc1ccc(-n2c(C)nc3c(-c4ccc(Cl)cc4)nc4ccccc4c3c2=O)cc1`, with above 32 µM.
In the case of `Cc1nc2c(-c3ccc(Br)cc3)nc3ccccc3c2c(=O)n1-c1ccccc1Br`, in the experiment on PC-3, the 50% inhibitory concentration (IC50) is above 20 µM.
Turning to `COc1ccc(-n2c(C)nc3c(-c4ccc(Cl)cc4)nc4ccccc4c3c2=O)cc1`, the result in the experiment filed under Bos taurus [1] and in the experiment filed under Bos taurus [2] was inactive. Besides, in the experiment with PC-3, half-maximal inhibition (IC50) required 1.6 µM.
Take `COc1ccccc1-n1c(C)nc2c(-c3ccc(Br)cc3)nc3ccccc3c2c1=O`: in the experiment on PC-3, the midpoint of inhibition, the IC50, lay at 6.7 µM.
Regarding `Cc1nc2c(-c3ccc(Cl)cc3)nc3ccccc3c2c(=O)n1-c1ccc(Br)cc1`, in the experiment with PC-3, the IC50 came to 2.5 µM.
With `Cc1nc2c(-c3ccc(Cl)cc3)nc3ccccc3c2c(=O)n1-c1cccc(Br)c1`, the result in the experiment listed under Bos taurus [3] and in the experiment listed under Bos taurus [4] was inactive. It took 1.4 µM to reach half-maximal inhibition in the experiment with PC-3 (IC50).
Compound `Cc1ccccc1-n1c(C)nc2c(-c3ccc(Br)cc3)nc3ccccc3c2c1=O` had an IC50 with PC-3 above 30 µM.
In the case of `Cc1nc2c(-c3ccc(Br)cc3)nc3ccccc3c2c(=O)n1-c1ccc(Cl)cc1`, half-maximal inhibition with PC-3 (IC50) was put at 1.9 µM.
The compound `COc1ccc(-n2c(C)nc3c(-c4ccc(Br)cc4)nc4ccccc4c3c2=O)cc1` gave a half-inhibitory concentration (IC50) in the experiment with PC-3 of 2.5 µM.
On the same count and under the same terms, then `Cc1nc2c(-c3ccc(Cl)cc3)nc3ccccc3c2c(=O)n1-c1ccccc1Cl`, with 2 µM; and `Cc1nc2c(-c3ccc(Br)cc3)nc3ccccc3c2c(=O)n1-c1ccccc1Cl`, with above 28 µM.
Compound `Cc1nc2c(-c3ccc(Cl)cc3)nc3ccccc3c2c(=O)n1-c1ccccc1Br` yielded a half-inhibitory concentration (IC50) in the experiment on PC-3 above 42 µM.
On the same count and under the same terms, the same measure for `Cc1nc2c(-c3ccc(Cl)cc3)nc3ccccc3c2c(=O)n1-c1ccccc1`: 3.2 µM.
